Assay results from patent publication US20250144176A1, “COMPOSITIONS COMPRISING OSTEOPONTIN (OPN)” (SOCIETE DES PRODUITS NESTLE S.A., priority 2022, published 2025).

Assays:
lipopolysaccharide (LPS) = conditions: early life dietary supplementation; cited from earlier work
immune cell profile = conditions: infants fed formula supplemented with bovine OPN; cited from earlier work
[1] = tested on: pneumonia virus of mice (PVM); assay: Neonatal mouse model of PVM-induced bronchiolitis: airway smooth muscle remodeling by α-smooth muscle actin immunohistochemistry; format: in vivo, mice (C57BL/6 pups); conditions: 9 dpi; OPNenriched group, remodeling dysregulated in OPN− group; FIG. 7
Text: (§1) C57BL/6 pups were either nursed by OPN-sufficient or OPN-deficient dams.
(§2) At postnatal day 5 (PND5), mice receiving OPN-deficient mother's milk were fed with either a whey protein concentrate (WPC) enriched in OPN (OPNenriched group) or a control WPC (OPN− group) once daily for 15 consecutive days.
(§3) In a similar way, at PND5, mice receiving OPN-sufficient mother's milk were fed with control WPC (OPN+ group) once daily for 15 consecutive days.
(§4) At PND10, all animals were infected intra-nasally (i.n.) with 10 PFU of PVM (J3666) to induce bronchiolitis.
(§5) The used OPN-enriched WPC contained 79 g protein per 100 g, and 729 mg OPN per 100 g. The pups in the OPNenriched group were fed the OPN-enriched WPC as a supplement to deliver 12 μg OPN per average gram of bodyweight per day.

[2] = tested on: pneumonia virus of mice (PVM); assay: Neonatal mouse model of PVM-induced bronchiolitis: lung immune cells counted by multi-colour flow cytometry; format: in vivo, mice (C57BL/6 pups)
Text: as §1, §2, §3, §4, §5
To investigate whether OPN intervention has an impact on immune cell composition, the number of pDCs, CD4+ and CD8+ T cells and neutrophils in lung tissues 5 and/or 9 days post infection were enumerated using multi-colour flow cytometry. Isolated single-cell suspensions from the lungs were washed with PBS/2% FCS, and red blood cells were lysed using Gey's buffer. Cells were washed again, followed by incubation with anti-FcγRIII/II for 15 min at 4° C. Cells were stained using fluorescently labeled antibodies described in the gating strategies herein, with DAPI, 7-AAD, or Zombie NIR used to exclude dead cells.

[3] = tested on: pneumonia virus of mice (PVM); assay: Neonatal mouse model of PVM-induced bronchiolitis: viral load (PVM-positive airway epithelial cells) and airway epithelial sloughing; format: in vivo, mice (C57BL/6 pups)
Text: as §1, §2, §3, §4, §5
To assess whether OPN intervention has an impact on pathogen expansion, viral load in PVM-infected mice was assessed as the percentage of PVM-positive airway epithelial cells (AEC) stained with an antibody against a specific PVM-glycoprotein. […] AEC detachment is a key feature of viral bronchiolitis and known to be associated with disease severity and viral load. Sloughing of the airway epithelium was quantified by measuring the length of sloughed airway epithelium and expressing this as a percentage of the basement membrane length of a single airway.

Substance	inflammation resulting from LPS administration (lipopolysaccharide (LPS))	immune cell profile of infants (immune cell profile)	pathological airway smooth muscle remodeling (ASM area) [1]	number of CD4+ cells in lung tissues ([2]; 5 dpi (peak of viral infection), OPNenriched group vs OPN− group, FIG. 4a)	CD4+ T cell accumulation in the lungs ([2]; 9 dpi (peak of immunopathology), OPNenriched group vs OPN− group, FIG. 4b)	neutrophil infiltration to the airways (granulocytic inflammation) ([2]; 9 dpi, FIG. 6)	number of pDCs in the lung ([2]; OPNenriched group vs OPN− group, FIG. 3)	virus infected (PVM-positive) airway epithelial cells (AEC), percentage ([3]; 5 dpi, OPNenriched group vs OPN− group, 12 μg OPN per gram bodyweight per day, once daily for 15 days from PND5, FIG. 2a)	sloughing of the airway epithelium (percentage of basement membrane length) ([3]; 9 dpi, OPNenriched group vs OPN+ group, sloughing significantly elevated in OPN− group, FIG. 2b)
bovine OPN: Bovine milk osteopontin, 262 residues, used as dietary supplement in cited studies	reduced inflammation	more similar to breastfed infants							
osteopontin [OPN]			attenuated pathological airway smooth muscle remodeling	significantly higher number	significant decline	reduced granulocytic inflammation	increased number	significant decrease	close to the OPN+ group
